According to patent US20240360157A1, “TYK2 INHIBITORS” (BIOGEN MA INC., priority 2021, published 2024):

How the values were obtained:
Type in all cases: biochemical
[1] = target: human JAK3 catalytic kinase (JH1) domain (Homo sapiens (Human), UniProt P52333); test: ADP-Glo Kinase Assay, recombinant JAK3 catalytic kinase (JH1) domain; conditions: recombinant JH1 domain 0.3 nM, 4 μM ATP, JAK3-974 peptide, mean, read-out: JAK3 biochem IC50 (nM) Mean
In short: (§1)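 Luminescent ADP read-out after residual ATP depletion, 100 min reaction. Kinase domain concentrations were 4 nM (JAK1), 0.2 nM (JAK2), 0.3 nM (JAK3) and 2 nM (TYK2), each with 50 μM peptide. IC50 values came from 4-parameter logistic fits over 11 points, 3-fold steps, top 10 μM or 1 μM.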

[2] = target: human JAK1 catalytic kinase (JH1) domain (Homo sapiens (Human), UniProt P23458); test: ADP-Glo Kinase Assay, recombinant JAK1 catalytic kinase (JH1) domain; conditions: recombinant JH1 domain 4 nM, 35 μM ATP, JAK3-342 peptide, mean, read-out: JAK1 biochem IC50 (nM) Mean
In short: as §1

[3] = target: human TYK2 catalytic kinase (JH1) domain (Homo sapiens (Human), UniProt P29597); test: ADP-Glo Kinase Assay, recombinant TYK2 catalytic kinase (JH1) domain; conditions: recombinant JH1 domain 2 nM, 10 μM ATP, JAK3-974 peptide, mean, read-out: TYK2 biochem IC50 (nM) Mean
In short: as §1

[4] = target: human JAK2 catalytic kinase (JH1) domain (Homo sapiens (Human), UniProt O60674); test: ADP-Glo Kinase Assay, recombinant JAK2 catalytic kinase (JH1) domain; conditions: recombinant JH1 domain 0.2 nM, 15 μM ATP, JAK3-974 peptide, mean, read-out: JAK2 biochem IC50 (nM) Mean
In short: as §1

Chain of human TYK2 catalytic kinase (JH1) domain (P29597 897-1176): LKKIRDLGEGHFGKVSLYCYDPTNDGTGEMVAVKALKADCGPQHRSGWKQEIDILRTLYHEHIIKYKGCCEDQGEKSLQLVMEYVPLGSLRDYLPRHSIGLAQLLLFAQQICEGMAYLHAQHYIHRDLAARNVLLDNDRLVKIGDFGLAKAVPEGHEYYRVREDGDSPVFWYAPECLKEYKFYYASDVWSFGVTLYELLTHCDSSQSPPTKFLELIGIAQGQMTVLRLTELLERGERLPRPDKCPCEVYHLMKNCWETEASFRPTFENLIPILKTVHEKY
Chain of human JAK2 catalytic kinase (JH1) domain (O60674 849-1124): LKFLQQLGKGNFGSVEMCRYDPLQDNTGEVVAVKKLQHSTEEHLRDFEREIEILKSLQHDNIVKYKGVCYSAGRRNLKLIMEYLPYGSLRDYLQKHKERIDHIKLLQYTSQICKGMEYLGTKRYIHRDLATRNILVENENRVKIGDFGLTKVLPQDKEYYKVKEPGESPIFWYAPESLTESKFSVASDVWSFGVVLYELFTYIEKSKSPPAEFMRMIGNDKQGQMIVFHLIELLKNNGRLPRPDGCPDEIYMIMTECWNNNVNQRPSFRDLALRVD
Chain of human JAK1 catalytic kinase (JH1) domain (P23458 875-1153): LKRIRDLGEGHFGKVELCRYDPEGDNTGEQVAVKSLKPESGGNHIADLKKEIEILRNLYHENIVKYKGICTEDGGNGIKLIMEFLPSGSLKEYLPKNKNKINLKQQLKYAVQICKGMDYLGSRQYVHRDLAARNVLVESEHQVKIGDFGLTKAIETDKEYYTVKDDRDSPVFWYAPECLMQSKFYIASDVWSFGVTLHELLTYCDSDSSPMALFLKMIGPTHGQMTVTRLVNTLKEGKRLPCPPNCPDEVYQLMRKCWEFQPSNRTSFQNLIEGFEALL
Chain of human JAK3 catalytic kinase (JH1) domain (P52333 822-1111): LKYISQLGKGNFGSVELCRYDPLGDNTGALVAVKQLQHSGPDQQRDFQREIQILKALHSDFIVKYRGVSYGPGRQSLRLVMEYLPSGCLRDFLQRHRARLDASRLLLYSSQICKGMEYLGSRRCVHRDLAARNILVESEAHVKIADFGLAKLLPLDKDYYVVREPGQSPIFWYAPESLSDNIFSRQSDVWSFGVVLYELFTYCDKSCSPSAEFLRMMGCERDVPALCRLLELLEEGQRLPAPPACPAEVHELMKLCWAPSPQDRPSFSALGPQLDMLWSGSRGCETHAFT

Structure (SMILES)	IC50 [1] [nM]	IC50 [2] [nM]	IC50 [3] [nM]	IC50 [4] [nM]
N#Cc1cc(-c2cc3c(N4CC5CCC(C4)N5C(=O)[C@@H]4C[C@H]4F)ccnn3c2)ccn1 [Example 104, 4-(4-(8-((1S,2R)-2-fluorocyclopropane-1-carbonyl)-3,8-diazabicyclo[3.2.1]octan-3-yl)pyrrolo[1,2-b]pyridazin-6-yl)picolinonitrile]	886	46	3.4	47
CCC(=O)N1C2CCC1CN(c1ncnn3cc(-c4cnn(C(F)F)c4)cc13)C2 [Example 41, 1-(3-(6-(1-(difluoromethyl)-1H-pyrazol-4-yl)pyrrolo[2,1-f][1,2,4]triazin-4-yl)-3,8-diazabicyclo[3.2.1]octan-8-yl)propan-1-one]	8430	2260	560	8760
O=C(C1CC1)N1C2CCC1CN(c1ccnn3cc(-c4cnn(C(F)(F)F)c4)cc13)C2 [Example 20, cyclopropyl(3-(6-(1-(trifluoromethyl)-1H-pyrazol-4-yl)pyrrolo[1,2-b]pyridazin-4-yl)-3,8-diazabicyclo[3.2.1]octan-8-yl)methanone]	1860	356	30.2	532
Cn1cc(-c2cc3c(N4CC5CCC(C4)N5C(=O)[C@@H]4C[C@@H]4F)ncnn3c2)cn1 [Example 80, ((1S,2S)-2-fluorocyclopropyl)(3-(6-(1-methyl-1H-pyrazol-4-yl)pyrrolo[2,1-f][1,2,4]triazin-4-yl)-3,8-diazabicyclo[3.2.1]octan-8-yl)methanone]	2050	1340	483	8020
CNc1nccc(-c2cc3c(N4CC5CCC(C4)N5C(=O)[C@@H]4C[C@H]4F)ccnn3c2)n1 [Example 126, ((1S,2R)-2-fluorocyclopropyl)(3-(6-(2-(methylamino)pyrimidin-4-yl)pyrrolo[1,2-b]pyridazin-4-yl)-3,8-diazabicyclo[3.2.1]octan-8-yl)methanone]	1460	54	8.8	98
O=C([C@@H]1C[C@H]1F)N1C2CCC1CN(c1ccnn3cc(C4CC4)cc13)C2 [Example 24, (3-(6-cyclopropylpyrrolo[1,2-b]pyridazin-4-yl)-3,8-diazabicyclo[3.2.1]octan-8-yl)((1S,2R)-2-fluorocyclopropyl)methanone]	9080	2740	164	5900
O=C([C@@H]1C[C@H]1F)N1C2CCC1CN(c1ccnc3[nH]c(C4CCC4)nc13)C2 [Example 209, (3-(2-cyclobutyl-3H-imidazo[4,5-b]pyridin-7-yl)-3,8-diazabicyclo[3.2.1]octan-8-yl)((1S,2R)-2-fluorocyclopropyl)methanone]	8590	1710	358	8500
O=C(C1CC1)N1C2CCC1CN(c1ncnn3cc(-c4ccc(Cl)nc4)cc13)C2 [Example 179]	9270	5400	684	10000
CNc1ccc(-c2cc3c(N4CC5CCC(C4)N5C(=O)[C@@H]4C[C@H]4F)ccnn3c2)cn1 [Example 129, ((1S,2R)-2-fluorocyclopropyl)(3-(6-(6-(methylamino)pyridin-3-yl)pyrrolo[1,2-b]pyridazin-4-yl)-3,8-diazabicyclo[3.2.1]octan-8-yl)methanone]	658	69	3.8	73
N#CCC(=O)N1C2CCC1CN(c1ncnn3cc(-c4cnn(C(F)F)c4)cc13)C2 [Example 44, 3-(3-(6-(1-(difluoromethyl)-1H-pyrazol-4-yl)pyrrolo[2,1-f][1,2,4]triazin-4-yl)-3,8-diazabicyclo[3.2.1]octan-8-yl)-3-oxopropanenitrile]	5390	395	236	4180
